# Patent US6410530B1, “Substituted 1,2,3,4-tetrahydronaphthalene derivatives” (AstraZeneca AB, priority 1996, dated 2002)
row,melting point,Structure (SMILES)
1,144 to 145 °C,"CN1CCN(c2cccc3c2C[C@H](NC(=O)c2ccccc2OS(C)(=O)=O)CC3)CC1 [Example 93, (R)-N-[8-(4-Methylpiperazin-1-yl)-1,2,3,4-tetrahydro-2-naphthyl]-2-methylsulfonyloxybenzamide]"
2,163 to 166 °C,"CN1CCC(c2cccc3c2C[C@H](NC(=O)c2ccc(C(F)(F)F)cc2)CC3)CC1 [Example 99, (R)-N-[8-(1-Methylpiperidine-4yl)-1,2,3,4-tetrahydro-2-naphthyl]-4-trifluoromethylbenzamide]"
3,196 to 198 °C,"CN1CCC(c2cccc3c2C[C@H](NC(=O)c2ccc(N4CCOCC4)cc2)CC3)CC1 [Example 101, (R)-N-[8-(1-Methylpiperidin-4-yl)-1,2,3,4-tetrahydro-2-naphthyl]-4-morpholinobenzamide]"
4,127 to 128 °C,"CN1CCN(c2cccc3c2CC[C@@H](NC(=O)c2ccc(N4CCOCC4)cc2)C3)CC1 [Example 118, (R)-N-[5-(4-Methylpiperazin-1-yl)-1,2,3,4-tetrahydro-2-naphthyl]-4-morpholinobenzamide]"
5,129 to 131 °C,"CN1CCN(c2cccc3c2CC[C@H](NC(=O)c2ccc(N4CCOCC4)cc2)C3)CC1 [Example 119, (S)-N-[5-(4-Methylpiperazin-1-yl)-1,2,3,4-tetrahydro-2-naphthyl]-4-morpholinobenzamide]"
6,123 to 125 °C,"CN1CCN(c2cccc3c2C[C@H](N(C)C(=O)c2ccc(C(F)(F)F)cc2)CC3)CC1 [Example 122, (R)-N-Methyl-N-[8-(4-methylpiperazin-1-yl)-1,2,3,4-tetrahydro-2-naphthyl]-4-trifluoromethylbenzamide]"
7,190 to 191 °C,"CN1CCN(c2cccc3c2C[C@H](NC(=O)c2ccc(N4CCSCC4)cc2)CC3)CC1 [Example 125, (R)-N-[8-(4-Methylpiperazin-1-yl)-1,2,3,4-tetrahydro-2-naphthyl]-4-thiomorpholinobenzamide]"
8,124 to 127 °C,"CN1CCN(c2cccc3c2C[C@H](NC(=O)c2ccc(C(=O)N4CCOCC4)cc2)CC3)CC1 [Example 129, (R)-N-[8-(4-Methylpiperazin-1-yl)-1,2,3,4-tetrahydro-2-naphthyl]-4-morpholinocarbonylbenzamide]"

row,Structure (SMILES),melting point
1,"CCCCOc1ccc(C(=O)N[C@@H]2CCc3cccc(C4CCN(C)CC4)c3C2)cc1 [Example 100, (R)-N-[8-(1-Methylpiperidin-4-yl)-1,2,3,4-tetrahydro-2-naphthyl]-4-butoxybenzamide]",162 to 164 °C
